Laboratory results from patent US7345070B2, “Peroxisome proliferator activated receptor agonists” (Eli Lilly and Company, priority 2000, dated 2008).
pIC50: −log10 of the molar value.

Assays:
huPPARγ = target: T1, huPPARγ (Homo sapiens, UniProt P37231); experiment: DNA-dependent binding (ABCD binding) using SPA technology, huPPARγ; conditions: SPA displacement of tritium-labeled PPARγ agonist radioligand
T1 sequence (P37231 1-505): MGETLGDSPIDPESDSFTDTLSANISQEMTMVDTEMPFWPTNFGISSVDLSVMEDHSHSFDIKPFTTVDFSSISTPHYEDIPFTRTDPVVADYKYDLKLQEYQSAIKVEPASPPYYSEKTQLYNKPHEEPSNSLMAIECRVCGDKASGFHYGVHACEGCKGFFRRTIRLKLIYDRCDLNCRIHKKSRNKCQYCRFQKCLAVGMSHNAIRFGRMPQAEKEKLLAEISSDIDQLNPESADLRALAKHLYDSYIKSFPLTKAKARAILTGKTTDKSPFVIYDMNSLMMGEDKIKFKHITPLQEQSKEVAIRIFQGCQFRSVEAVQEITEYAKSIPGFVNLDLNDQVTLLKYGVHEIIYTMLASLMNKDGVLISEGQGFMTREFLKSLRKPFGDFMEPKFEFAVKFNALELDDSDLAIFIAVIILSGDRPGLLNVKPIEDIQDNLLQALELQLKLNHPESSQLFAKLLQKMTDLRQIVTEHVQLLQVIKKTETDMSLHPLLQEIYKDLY
T1 sequence (P19793 1-462 partner): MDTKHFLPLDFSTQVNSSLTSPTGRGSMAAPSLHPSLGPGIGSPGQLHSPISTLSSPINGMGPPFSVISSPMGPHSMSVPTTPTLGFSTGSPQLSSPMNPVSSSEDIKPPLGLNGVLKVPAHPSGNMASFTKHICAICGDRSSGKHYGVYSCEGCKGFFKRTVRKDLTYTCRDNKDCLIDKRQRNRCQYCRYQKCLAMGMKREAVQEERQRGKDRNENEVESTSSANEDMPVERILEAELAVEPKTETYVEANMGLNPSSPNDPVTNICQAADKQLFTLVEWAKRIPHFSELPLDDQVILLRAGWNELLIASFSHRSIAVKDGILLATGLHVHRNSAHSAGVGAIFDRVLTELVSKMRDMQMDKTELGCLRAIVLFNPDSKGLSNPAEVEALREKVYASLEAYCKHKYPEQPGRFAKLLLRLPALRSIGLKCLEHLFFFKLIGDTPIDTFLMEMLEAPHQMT
Method: DNA-dependent binding (ABCD binding) was carried out using SPA technology with PPAR receptors. Tritium-labeled PPARα and PPARγ agonists were used as radioligands for generating displacement curves and IC50 values with compounds of the invention. Cotransfection assays were carried out in CV-1 cells. The reporter plasmid contained an acylCoA oxidase (AOX) PPRE and TK promoter upstream of the luciferase reporter cDNA. Appropriate PPARs and RXRα were constitutively expressed using plasmids containing the CMV promoter. […] In order to eliminate such interference, a GAL4 chimeric system was used in which the DNA binding domain of the transfected PPAR was replaced by that of GAL4, and the GAL4 response element was utilized in place of the AOX PPRE. Cotransfection efficacy was determined relative to PPARα agonist and PPARγ agonist reference molecules. Efficacies were determined by computer fit to a concentration-response curve, or in some cases at a single high concentration of agonist (10 μM). For binding or cotransfection studies with receptors other than PPARs, similar assays were carried out using appropriate ligands, receptors, reporter constructs, etc., for that particular receptor.
These studies were carried out to evaluate the ability of compounds of the invention to bind to and/or activate various nuclear transcription factors, particularly huPPARα (“hu” indicates “human”) and huPPARγ. These studies provide in vitro data concerning efficacy and selectivity of compounds of the invention. Furthermore, binding and cotransfection data for compounds of the invention were compared with corresponding data for marketed compounds that act on either huPPARα or huPPARγ.

huPPARα = experiment: Cotransfection assay in CV-1 cells, huPPARα; assay type: cell-based, human; conditions: GAL4 chimeric system, relative to PPARα agonist reference molecule
Summary of the method: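 Binding: SPA displacement of tritiated PPARα or PPARγ agonist, giving IC50. Cotransfection: CV-1 cells with CMV-driven PPAR and RXRα, luciferase reporter (AOX PPRE/TK or GAL4 chimera); efficacy relative to PPARα or PPARγ reference agonists, from curve fit or at 10 μM.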

| pIC50 (huPPARγ) | SMILES | huPPARα CTF Efficacy (huPPARα) [%] |
| --- | --- | --- |
| 7.10 | Cc1oc(C2CCCCC2)nc1CCOc1ccc(CC(C)(Oc2ccc3c(c2)OCO3)C(=O)O)cc1 (centres unmarked) [Example 80, 2-(Benzo[1,3]dioxol-5-yloxy)-3-{4-[2-(2-cyclohexyl-5-methyl-oxazol-4-yl)-ethoxy]-phenyl}-2-methyl-propionic acid] | 84 |
| 7.14 | Cc1oc(CCc2ccccc2)nc1CCOc1ccc(C[C@](C)(Oc2ccccc2)C(=O)O)cc1 [Example 86, (S)-2-Methyl-3-{4-[2-(5-methyl-2-phenethyl-oxazol-4-yl)-ethoxy]-phenyl}-2-phenoxy-propionic acid] | 24 |
| 7.29 | Cc1oc(-c2ccccc2)nc1CCCc1ccc(CC(C)(Oc2ccccc2)C(=O)O)s1 (centres unmarked) [Example 91, 2-Methyl-3-{5-[3-(5-methyl-2-phenyl-oxazol-4-yl)-propyl]-thiophen-2-yl}-2-phenoxy-propionic acid] | 47 |

Continued, compound first:

| SMILES | pIC50 (huPPARγ) | huPPARα CTF Efficacy (huPPARα) [%] |
| --- | --- | --- |
| Cc1oc(C2(C)CCCCC2)nc1CCOc1ccc(C[C@](C)(Oc2ccc(F)cc2)C(=O)O)cc1 [Example 67, (S)-2-(4-Fluoro-phenoxy)-2-methyl-3-(4-{2-[5-methyl-2-(1-methyl-cyclohexyl)-oxazol-4-yl]-ethoxy}-phenyl)-propionic acid] | 7.19 | 34 |
| Cc1oc(-c2cccs2)nc1CCOc1ccc(CC(C)(Oc2cccc(C(F)(F)F)c2)C(=O)O)cc1 (centres unmarked) [Example 71, 2-Methyl-3-{4-[2-(5-methyl-2-thiophen-2-yl-oxazol-4-yl)-ethoxy]-phenyl}-2-(3-trifluoromethyl-phenoxy)-propionic acid] | 7.09 | 142 |
| COc1cccc(OC(C)(Cc2ccc(OCCc3nc(C4CCCCC4)oc3C)cc2)C(=O)O)c1 (centres unmarked) [Example 76, 3-{4-[2-(2-Cyclohexyl-5-methyl-oxazol-4-yl)-ethoxy]-phenyl}-2-(3-methoxy-phenoxy)-2-methyl-propionic acid] | 7.08 | 63 |
| Cc1oc(-c2ccccc2)nc1CCOc1ccc(CC(C)(Oc2ccc3c(c2)OCO3)C(=O)O)cc1 (centres unmarked) [Example 78, 2-(Benzo[1,3]dioxol-5-yloxy)-2-methyl-3-{4-[2-(5-methyl-2-phenyl-oxazol-4-yl)-ethoxy]-phenyl}-propionic acid] | 7.05 | 52 |
